# Experiments:
# [1] = molecular target: benzodiazepine site on the GABAA receptor (rat cortex); assay: Inhibition of [3H]flunitrazepam binding to rat cortex membranes; details: read-out: IC50 for displacing [3H]flunitrazepam binding to rat cortex
# [2] = system: GABAA receptor (rat cortex membranes); assay: Enhancement of [35S]TBPS binding to rat cortex membranes
# From the text: A further index of activity at the benzodiazepine site on the GABAA receptor is the ability to increase the binding of [^35S] t-butylbicyclophosphorothionate (TBPS) to rat cortex membranes. TBPS binds to a site on the GABAA receptor which is closely associated with the chloride channel, and an increase in TBPS binding correlates with increased activation of the chloride conductance (i.e., enhanced GABAA receptor function). Compounds which act as agonists at the benzodiazepine site increase TBPS binding to varying degrees, which reflects their relative efficacies.
# [3] = Co-incubation of Compound 1 and Indiplon with human liver microsomes; format: in vitro ADME
# Method: Co-incubation of Compound 1 and Indiplon with Human Liver Microsomes: In another set of experiments Compound 1 and Indiplon were incubated together with human liver microsomes and their metabolism followed over time to eliminate any potential variability in samples. The reaction mixture compositions utilized in these experiments were as follows:
# Reaction Mixture Composition A:
# Reaction Mixture Composition B:
# Reaction Mixture Composition C:
# HPLC-grade solvents were used for preparation of all solutions. Dosing solutions of test agents were initially prepared at five times the final concentrations of the various reaction mixtures indicated above. Dosing solutions were warmed to 37° C. prior to the start of the assay. Two sets of triplicate wells were prepared in a 96-well deep well plate for each reaction mixture and warmed to 37° C. At the start of the assay, dosing solutions were diluted five-fold into the reaction wells. The reaction plate was incubated at 37° C., and 30 μL aliquots removed immediately after start (15 sec), and after each of 10 min, 20 min, 30 min, 40 min and 60 min of reaction. The aliquots were added to 30 μL of ice cold STOP Solution (acetonitrile containing 0.3% acetic acid with 3 mM haloperidol as an internal standard) in a separate 96-well plate. The stopped reactions were incubated at least 10 min at −20° C., and 30 μL of water was added. The plates were centrifuged for 15 min at 2000 rpm, 4° C. Approximate 60 μL of the supernatant was removed without disturbing the pellet and transferred to a fresh 96-well plate for analysis. Analysis samples were stored at −20° C. and analyzed by LC-MS.
# [4] = Human liver microsome metabolic stability assay (separate incubations); format: in vitro ADME; details: 1.0 mg/mL human liver microsomes
# From the text: Human Microsomal Assay: The metabolic stability of the present compounds may be evaluated in one or more microsomal assays that are known in the art. See, for example, Obach, R. S. Drug Metab Disp 1999, 27, p. 1350 “Prediction of human clearance of twenty-nine drugs from hepatic microsomal intrinsic clearance data: An examination of in vitro half-life approach and nonspecific binding to microsomes”; Houston, J. B. et al., Drug Metab Rev 1997, 29, p. 891 “Prediction of hepatic clearance from microsomes, hepatocytes, and liver slices”; Houston, J. B. Biochem Pharmacol 1994, 47, p. 1469 “Utility of in vitro drug metabolism data in predicting in vivo metabolic clearance”; Iwatsubo, T et al., Pharmacol Ther 1997, 73, p. 147 “Prediction of in vivo drug metabolism in the human liver from in vitro metabolism data”; and Lave, T. et al., Pharm Res 1997, 14, p. 152 “The use of human hepatocytes to select compounds based on their expected hepatic extraction ratios in humans”; each of which are incorporated herein in their entirety.
# The objectives of this study were to determine the metabolic stability of the test compounds in pooled liver microsomal incubations and to perform full scan LC-MS analysis for the detection of major metabolites. Samples of the test compounds, exposed to pooled human liver microsomes, were analyzed using HPLC-MS (or MS/MS) detection. For determining metabolic stability, multiple reaction monitoring (MRM) was used to measure the disappearance of the test compounds. For metabolite detection, Q1 full scans were used as survey scans to detect the major metabolites.
# Experimental Procedures: Human liver microsomes were obtained from Absorption Systems L.P. (Exton, Pa.). Details about the matrices used in the experiments are shown below. The incubation mixture was prepared as follows:
# Reaction Mixture Composition
# Incubation of Test Compounds with Liver Microsomes: The reaction mixture, minus cofactors, was prepared. An aliquot of the reaction mixture (without cofactors) was incubated in a shaking water bath at 37° C. for 3 minutes. Another aliquot of the reaction mixture was prepared as the negative control. The test compound was added into both the reaction mixture and the negative control at a final concentration of 1 μM. An aliquot of the reaction mixture was prepared as a blank control, by the addition of plain organic solvent (not the test compound). The reaction was initiated by the addition of cofactors (not into the negative controls), and then incubated in a shaking water bath at 37° C. Aliquots (200 μL) were withdrawn in triplicate at 0, 15, 30, 60, and 120 minutes and combined with 800 μL of ice-cold 50/50 acetonitrile/dH2O to terminate the reaction. The positive controls, testosterone and propranolol, were run simultaneously with the test compounds in separate reactions.
# All samples were analyzed using LC-MS (or MS/MS). An LC-MRM-MS/MS method was used for metabolic stability. Also, Q1 full scan LC-MS methods were performed on the blank matrix and the test compound incubation samples. The Q1 scans served as survey scans to identify any sample unique peaks that might represent the possible metabolites. The masses of these potential metabolites can be determined from the Q1 scans.
# [5] = molecular target: benzodiazepine receptor of the rat cerebral cortex; assay: Benzodiazepine receptor binding, competition with [3H]flunitrazepam; details: [3H]flunitrazepam 0.4 nM, 4° C., 60 minutes
# Method: Benzodiazepine Receptor Binding. Compound 1 and Indiplon were compared in their ability to bind to compete with [^3H] flunitrazepam (0.4 nM) for binding to the benzodiazepine receptor of the rat cerebral cortex using the method of Speth, R C et al., 1979, Life Sci., 24:351-358. Varying concentrations of Indiplon or Compound 1 (30 pM-1 μM) were used. Diazepam (3 μM) was used as a non-specific receptor binding compound. Binding was allowed to proceed at 4° C. for 60 minutes. Quantification of binding was determined by scintillation counting.
smiles,measurement,setting,value
CN1C(=O)CN=C(c2ccccc2)c2cc(Cl)ccc21 [diazepam],IC50,[1],17 nM
same,Emax (maximum enhancement of TBPS binding over the concentration range employed),[2],55%
CCN(CC)CCN1C(=O)CN=C(c2ccccc2F)c2cc(Cl)ccc21 [flurazepam],Emax (maximum enhancement of TBPS binding over the concentration range employed),[2],71%
"[2H]C([2H])([2H])N(C(C)=O)c1cccc(-c2ccnc3c(C(=O)c4cccs4)cnn23)c1 [Compound 1, N-d3-Methyl-N-{3-[3-(thiophene-2-carbonyl)-pyrazolo[1,5-a]pyrimidin-7-yl]-phenyl}-acetamide]",half-life,"[3]; 0.1 μM each, 1.0 mg/ml human microsomes (FIG. 1 panel B)",4.557 h
same,ratio of half lives of Compound 1 to Indiplon,"[3]; 0.1 μM each, 1.0 mg/ml human microsomes (panel B)",1.257
same,half-life,"[3]; 0.2 μM each, 2.0 mg/ml human microsomes (FIG. 1 panel C)",2.543 h
same,ratio of half lives of Compound 1 to Indiplon,"[3]; 0.2 μM each, 2.0 mg/ml human microsomes (panel C)",1.312
same,half-life,"[3]; 0.5 μM each, 1.0 mg/ml human microsomes (FIG. 1 panel A)",3.405 h
same,ratio of half lives of Compound 1 to Indiplon,"[3]; 0.5 μM each, 1.0 mg/ml human microsomes (panel A)",1.260
same,half life,[4]; 1 μM test compound,1.24 h
same,% remaining after 60 minutes of exposure,[4]; 1 μM test compound,66%
same,% remaining after 120 minutes of exposure,[4]; 1 μM test compound,59%
same,ratio of half lives of Compound 1 to Indiplon,[4]; 1 μM,1.261
Cc1ccc(-c2nc3ccc(C)cn3c2CC(=O)N(C)C)cc1 [zolpidem],IC50,[1],26 nM
CN1C(=O)CN=C(c2ccccc2F)c2cc([N+](=O)[O-])ccc21 [flunitrazepam],IC50,[1],114 nM
Cc1nnc2n1-c1ccc(Cl)cc1C(c1ccccc1Cl)=NC2 [triazolam],IC50,[1],0.5 nM
same,Emax (maximum enhancement of TBPS binding over the concentration range employed),[2],78%
"CC(=O)N(C)c1cccc(-c2ccnc3c(C(=O)c4cccs4)cnn23)c1 [Compound 1, N-d3-Methyl-N-{3-[3-(thiophene-2-carbonyl)-pyrazolo[1,5-a]pyrimidin-7-yl]-phenyl}-acetamide]",IC50,[5],2.9 nM
same,Ki,[5],2.4 nM
"CC(=O)N(C)c1cccc(-c2ccnc3c(C(=O)c4cccs4)cnn23)c1 [Indiplon, N-methyl-N-[3-[3-(2-thienylcarbonyl)-pyrazolo[1,5-a]pyrimidin-7-yl]phenyl]acetamide]",half-life at 0.1 μM,"[3]; human liver microsomes, 0.1 μM each, 1.0 mg/ml human microsomes (FIG. 1 panel B)",3.62 h
same,half-life at 0.2 μM,"[3]; human liver microsomes, 0.2 μM each, 2.0 mg/ml human microsomes (FIG. 1 panel C)",1.94 h
same,half-life at 0.5 μM,"[3]; human liver microsomes, 0.5 μM each, 1.0 mg/ml human microsomes (FIG. 1 panel A)",2.7 h
same,% remaining after 60 minutes of exposure,[4]; 1 μM test compound,50%
same,% remaining after 120 minutes of exposure,[4]; 1 μM test compound,42%
same,half-life at 1 μM,"[4]; pooled human liver microsomes, 1 μM test compound",0.983 h
same,IC50,[5],3.6 nM
same,Ki,[5],3 nM

# Reference: US20080058351A1, “Novel heterobicyclic compounds” (Concert Pharmaceuticals Inc., priority 2006, published 2008)
